Values of other authors, collected in US20260108515A1, “A RAPIDLY DISINTEGRATING TABLET OF ROSUVASTATIN AND ITS PROCESS OF PREPARATION” (NOVUMGEN LIMITED, priority 2022, published 2026).

Tests used:
[1] = in vivo
[2] = high permeability and low solubility
[3] = system: high-density lipoprotein—Cholesterol; conditions: patients with raised triglyceride levels
CYP3A4 = CYP3A4 (Homo sapiens, UniProt P08684)
Chain of CYP3A4 (P08684 whole entry): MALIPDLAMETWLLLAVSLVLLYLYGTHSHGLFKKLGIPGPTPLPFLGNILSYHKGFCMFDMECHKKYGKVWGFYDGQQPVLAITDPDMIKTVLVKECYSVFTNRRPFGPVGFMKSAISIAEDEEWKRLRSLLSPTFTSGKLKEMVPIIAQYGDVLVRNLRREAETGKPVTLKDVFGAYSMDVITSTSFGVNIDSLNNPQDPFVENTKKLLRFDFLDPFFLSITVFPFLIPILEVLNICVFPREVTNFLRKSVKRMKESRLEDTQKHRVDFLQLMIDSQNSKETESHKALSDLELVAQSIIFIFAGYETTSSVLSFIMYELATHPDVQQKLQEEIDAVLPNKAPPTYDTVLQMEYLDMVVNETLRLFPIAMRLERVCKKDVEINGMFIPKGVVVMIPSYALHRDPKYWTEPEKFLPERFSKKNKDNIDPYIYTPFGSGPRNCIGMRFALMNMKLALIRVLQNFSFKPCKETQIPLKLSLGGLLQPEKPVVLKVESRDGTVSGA

plasma half-life [1]: 18 to 24 h
biopharmaceutics classification system (BCS) class [2]: class II
metabolizing isoenzyme (CYP3A4): metabolized primarily by CYP3A4
SMILES: CC(C)c1nc(N(C)S(C)(=O)=O)nc(-c2ccc(F)cc2)c1/C=C/[C@@H](O)C[C@@H](O)CC(=O)O [Rosuvastatin, (E,3R,5S)-7-[4-(4-fluorophenyl)-2-[methyl(methylsulfonyl)amino]-6-propan-2-ylpyrimidin-5-yl]-3,5-dihydroxyhept-6-enoic acid]
raises high-density lipoprotein—Cholesterol [3]: 15-20%
